From PubChem BioAssay (NCI)
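Each compound was tested at five concentrations against cells in 96-well plates for 48 hours. TGI: total growth inhibition.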

Tests used:
Assay in all cases: DTP human tumour cell line panel, 48 h
SNB-78 CNS = test system: SNB-78 CNS
HOP-92 NSCLC = test system: HOP-92 NSCLC
NCI-H522 lung = test system: NCI-H522 lung
CAKI-1 renal = test system: CAKI-1 renal
TK-10 renal = test system: TK-10 renal
SK-MEL-28 melanoma = test system: SK-MEL-28 melanoma
SNB-19 CNS = test system: SNB-19 CNS
A498 renal = test system: A498 renal
SF-268 CNS = test system: SF-268 CNS
UO-31 renal = test system: UO-31 renal
UACC-257 melanoma = test system: UACC-257 melanoma
DLD-1 colon = test system: DLD-1 colon
HOP-18 NSCLC = test system: HOP-18 NSCLC
OVCAR-4 ovarian = test system: OVCAR-4 ovarian
HL-60(TB) leukemia = test system: HL-60(TB) leukemia
SF-539 CNS = test system: SF-539 CNS
SK-MEL-2 melanoma = test system: SK-MEL-2 melanoma
HCT-116 colon = test system: HCT-116 colon
SW-620 colon = test system: SW-620 colon
RPMI-8226 leukemia = test system: RPMI-8226 leukemia
EKVX NSCLC = test system: EKVX NSCLC
OVCAR-3 ovarian = test system: OVCAR-3 ovarian
KM12 colon = test system: KM12 colon
OVCAR-8 ovarian = test system: OVCAR-8 ovarian
IGROV1 ovarian = test system: IGROV1 ovarian
M19-MEL melanoma = test system: M19-MEL melanoma
A549 NSCLC = test system: A549 NSCLC
COLO 205 colon = test system: COLO 205 colon
HCC-2998 colon = test system: HCC-2998 colon
MALME-3M melanoma = test system: MALME-3M melanoma
HT29 colon = test system: HT29 colon
M14 melanoma = test system: M14 melanoma
CCRF-CEM leukemia = test system: CCRF-CEM leukemia
NCI-H23 lung = test system: NCI-H23 lung
K-562 leukemia = test system: K-562 leukemia
SNB-75 CNS = test system: SNB-75 CNS
SK-OV-3 ovarian = test system: SK-OV-3 ovarian
786-0 renal = test system: 786-0 renal
SK-MEL-5 melanoma = test system: SK-MEL-5 melanoma
SR leukemia = test system: SR leukemia
SN12C renal = test system: SN12C renal
MOLT-4 leukemia = test system: MOLT-4 leukemia
DMS 273 small cell lung = test system: DMS 273 small cell lung
LXFL 529 NSCLC = test system: LXFL 529 NSCLC
UACC-62 melanoma = test system: UACC-62 melanoma
DMS 114 small cell lung = test system: DMS 114 small cell lung
NCI-H226 lung = test system: NCI-H226 lung
SF-295 CNS = test system: SF-295 CNS
HOP-62 NSCLC = test system: HOP-62 NSCLC
XF 498 CNS = test system: XF 498 CNS
U251 CNS = test system: U251 CNS
NCI-H460 lung = test system: NCI-H460 lung
RXF-631 renal = test system: RXF-631 renal
HCT-15 colon = test system: HCT-15 colon
KM20L2 colon = test system: KM20L2 colon
ACHN renal = test system: ACHN renal
RXF 393 renal = test system: RXF 393 renal
LOX IMVI melanoma = test system: LOX IMVI melanoma
OVCAR-5 ovarian = test system: OVCAR-5 ovarian

Measured: TGI

O=S1(=O)OCCOS(=O)(=O)C1Cl
> 100 µM: SNB-78 CNS | HOP-92 NSCLC | NCI-H522 lung | CAKI-1 renal | TK-10 renal | SK-MEL-28 melanoma | SNB-19 CNS | A498 renal | SF-268 CNS | UO-31 renal | UACC-257 melanoma | DLD-1 colon | HOP-18 NSCLC | OVCAR-4 ovarian | HL-60(TB) leukemia | SF-539 CNS | SK-MEL-2 melanoma | HCT-116 colon | SW-620 colon | RPMI-8226 leukemia | EKVX NSCLC | OVCAR-3 ovarian | KM12 colon | OVCAR-8 ovarian | IGROV1 ovarian | M19-MEL melanoma | A549 NSCLC | COLO 205 colon | HCC-2998 colon | MALME-3M melanoma | HT29 colon | M14 melanoma | CCRF-CEM leukemia | NCI-H23 lung | K-562 leukemia | SNB-75 CNS | SK-OV-3 ovarian | 786-0 renal | SK-MEL-5 melanoma | SR leukemia | SN12C renal | MOLT-4 leukemia | DMS 273 small cell lung | LXFL 529 NSCLC | UACC-62 melanoma | DMS 114 small cell lung | NCI-H226 lung | SF-295 CNS | HOP-62 NSCLC

COc1cc(C(=O)C/C(CCC(=O)Nc2ccc(Cl)cc2Cl)=N/NC(=O)C(=O)NN)ccc1O
> 100 µM: HOP-92 NSCLC | NCI-H522 lung | CAKI-1 renal | TK-10 renal | SK-MEL-28 melanoma | SNB-19 CNS | A498 renal | SF-268 CNS | XF 498 CNS | UO-31 renal | U251 CNS | UACC-257 melanoma | DLD-1 colon | HOP-18 NSCLC | OVCAR-4 ovarian | HL-60(TB) leukemia | SF-539 CNS | NCI-H460 lung | RXF-631 renal | HCT-116 colon | SW-620 colon | EKVX NSCLC | OVCAR-3 ovarian | HCT-15 colon | KM12 colon | OVCAR-8 ovarian | KM20L2 colon | IGROV1 ovarian | M19-MEL melanoma | A549 NSCLC | COLO 205 colon | HCC-2998 colon | MALME-3M melanoma | ACHN renal | HT29 colon | M14 melanoma | CCRF-CEM leukemia | NCI-H23 lung | K-562 leukemia | SNB-75 CNS | SK-OV-3 ovarian | 786-0 renal | SK-MEL-5 melanoma | RXF 393 renal | SN12C renal | LXFL 529 NSCLC | UACC-62 melanoma | DMS 114 small cell lung | NCI-H226 lung | LOX IMVI melanoma | SF-295 CNS | HOP-62 NSCLC | OVCAR-5 ovarian
